From US20240059710A1, “KRAS G12D Inhibitors” (Jacobio Pharmaceuticals Co., Ltd., priority 2020, published 2024)
Like-named read-outs stand apart in the source and are kept apart here.

Columns and labels:
AGS = experiment: Cell growth inhibition assay (AGS); format: cell-based; conditions: 6 days incubation, CellTiter-Glo
Procedure: (§1) 4. Cell Growth Inhibition Assay
AGS cultured in F12K medium (Gibco) containing 10% fetal bovine serum (Gibco). Cells in culture medium were plated in 96-well plates at a concentration of 500 cells/well ([…]) and allowed to attach overnight.
(§2) The next day, compounds were diluted in culture medium and added to the plates. After 6 days incubation in a 37° C./5% CO2 cell incubator, the cell viability was detected by CellTiter-Glo® Luminescent Cell Viability Assay kit (Promega). Luminescent signals were read on Tecan Spark multimode microplate reader and analyzed using a 4-parameter logistic model to calculate IC50 values.

[1] = target: T1, GppNp-loaded HIS-KRAS (G12D, aa 1-169) / cRAF RBD (Homo sapiens, UniProt P01116, G12D); experiment: GTP-KRAS and cRAF interaction assay; format: binding; conditions: HTRF, 2 hours at 25° C.
T1 construct: GppNp-loaded HIS-KRAS (G12D, aa 1-169)
T1 sequence (P01116 1-169 isoform P01116-2 G12D): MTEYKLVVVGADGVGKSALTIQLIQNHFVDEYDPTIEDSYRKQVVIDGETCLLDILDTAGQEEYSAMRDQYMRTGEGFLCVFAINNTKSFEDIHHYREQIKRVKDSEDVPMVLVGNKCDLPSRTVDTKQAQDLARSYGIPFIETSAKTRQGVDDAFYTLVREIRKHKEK
Procedure: 2. GTP-KRAS and cRAF Interaction Assay
GppNp-loaded HIS-KRAS (G12D, aa 1-169) was pre-incubated with a compound in the presence of 200 µM GTP in a 384-well plate (Greiner) for 15 min, then cRAF RBD (GST tag, aa 50-132, CreativeBioMart), MAb Anti GST-d2 (Cisbio) and MAb Anti 6HIS-Tb cryptate Gold (Cisbio) were added to the assay wells (Final concentration: 2.0 nM GppNp-loaded HIS-KRAS (G12D), 100 μM GTP, 35 nM cRAF RBD, 1 μg/mL MAb Anti GST-d2, 52.5 ng/mL MAb Anti 6HIS-Tb cryptate Gold) and incubated for 2 hours at 25° C. Wells containing same percent of DMSO served as vehicle control, and wells without KRAS served as low control. HTRF signals were read on Tecan Spark multimode microplate reader and HTRF ratios were calculated under manufacturer's instructions. The percent of activation of compounds treated wells were normalized between vehicle control and low control (% Activation=(HTRF ratioCompound treated−HTRF ratioLow control)/(HTRF ratioVehicle control−HTRF ratioLow control)*100). Then the data were analyzed either by fitting a 4-parameter logistic model or by Excel to calculate IC50 values.

AsPC-1 = experiment: Cell growth inhibition assay (AsPC-1); format: cell-based; conditions: AsPC-1, 6 days incubation, CellTiter-Glo
Procedure: as §1
AsPC-1 cultured in RPMI-1640 medium (Gibco) containing 10% fetal bovine serum (Gibco). Cells in culture medium were plated in 96-well plates at a concentration of 1000 cells/well ([…]) and allowed to attach overnight.
as §2

[2] = target: T2, GDP-loaded HIS-KRAS (G12D, aa 1-169) (Homo sapiens, UniProt P01116, G12D); experiment: SOS1 catalyzed nucleotide exchange assay; format: biochemical; conditions: SOS1 ExD, TR-FRET, 4 hours at 25° C.
T2 construct: GDP-loaded HIS-KRAS (G12D, aa 1-169)
T2 sequence (P01116 1-169 isoform P01116-2 G12D): as above
Procedure: 1. SOS1 Catalyzed Nucleotide Exchange Assay
GDP-loaded HIS-KRAS (G12D, aa 1-169) was pre-incubated with a compound in the presence of 10 nM GDP in a 384-well plate (Greiner) for 15 min, then purified SOS1 ExD (Flag tag, aa 564-1049), BODIPY™ FL GTP (Invitrogen) and MAb (monoclonal antibody) Anti 6HIS-Tb cryptate Gold (Cisbio) were added to the assay wells (Final concentration: 1.5 nM GDP-loaded HIS-KRAS (G12D), 5 nM GDP, 0.5 μM SOS1 ExD, 80 nM BODIPY™ FL GTP, 52.5 ng/mL MAb Anti 6HIS-Tb cryptate Gold) and incubated for 4 hours at 25° C. Wells containing same percent of DMSO served as vehicle control, and wells without KRAS served as low control. TR-FRET signals were read on Tecan Spark multimode microplate reader. The parameters were F486: Excitation 340 nm, Emission 486 nm, Lag time 100 μs, Integration time 200 μs; F515: Excitation 340 nm, Emission 515 nm, Lag time 100 μs, Integration time 200 μs. TR-FRET ratios for each individual wells were calculated by equation: TR-FRET ratio=(Signal F515/Signal F486)*10000. The percent of activation of compounds treated wells were normalized between vehicle control and low control (% Activation=(TR-FRET ratioCompound treated−TR-FRET ratioLow control)/(TR-FRET ratioVehicle control−TR-FRET ratioLow control)*100%). Then the data were analyzed either by fitting a 4-parameter logistic model or by Excel to calculate IC50 values.

[3] = system: AGS cells expressing KRAS G12D; experiment: Phospho-ERK1/2(THR202/TYR204) HTRF assay; format: cell-based; conditions: 2 hours incubation, read-out: AGS p-ERK IC50
Procedure: AGS cells expressing KRAS G12D were cultured in F12K medium (Gibco) containing 10% fetal bovine serum (Gibco). The AGS cells in culture medium were seeded in 96-well plates at a concentration of 40,000 cells/well and then put in a 37° C./5% CO2 cell incubator to incubate overnight. The next day, culture medium was removed and the compound diluted in assay medium (F12K, 0.1% FBS) was added in each well. After 2 hours incubation in a 37° C./5% CO2 cell incubator, the assay medium in 96-well plates was removed, then 50 μL of 1× blocking reagent-supplemented lysis buffer (Cisbio) was added and the plates were incubated at 25° C. for 45 min with shaking. 10 μL of cell lysates from the 96-well plates were transferred to a 384-well plate (Greiner) containing 2.5 μL/well HTRF® pre-mixed antibodies (Cisbio 64AERPEH). Incubate 4 hours at 25° C. and then read HTRF signals on Tecan Spark multimode microplate reader. The data were analyzed using a 4-parameter logistic model to calculate IC50 values.

C#Cc1cccc2cc(O)cc(-c3c(Cl)cc4c(N5CC6CCC(C5)N6)nc(OCC5(CN6CCOCC6)CC5)nc4c3Cl)c12 (single isomer, unassigned) [Compound 107B]
IC50 (AGS; Homo sapiens, 144 h): 150 nM
IC50 [1]: 399 nM
IC50 (AsPC-1; Homo sapiens, ASPC1, 144 h): 395 nM
IC50 [2]: 3.16 nM
IC50 ([3]; Homo sapiens): 57.6 nM

C#Cc1cccc2cc(O)cc(-c3c(F)cc4c(N5CC6CCC(C5)N6)nc(OCC5(CN6CCS(=O)(=O)CC6)CC5)nc4c3F)c12 [Compound 83]
IC50 (AGS; Homo sapiens, 144 h): 273 nM
IC50 [1]: 3150 nM
IC50 (AsPC-1; Homo sapiens, ASPC1, 144 h): 5090 nM
IC50 [2]: 18 nM
IC50 ([3]; Homo sapiens): 131 nM

C#Cc1c(F)ccc2cc(O)cc(-c3ccc4c(N5CC6CCC(C5)N6)nc(OCC5(CN6CCOCC6)CC5)nc4c3F)c12 [Compound 48]
IC50 (AGS; Homo sapiens, 144 h): 1.14 nM
IC50 [1]: 17.7 nM
IC50 (AsPC-1; Homo sapiens, ASPC1, 144 h): 19.9 nM
IC50 [2]: 7.14 nM
IC50 ([3]; Homo sapiens): 0.794 nM

C#Cc1c(OC)ccc2cc(O)cc(-c3ccc4c(N5CC6CCC(C5)N6)nc(OCC5(CN6CCOCC6)CC5)nc4c3F)c12 [Compound 94]
IC50 (AGS; Homo sapiens, 144 h): 333 nM
IC50 [1]: 2520 nM
IC50 (AsPC-1; Homo sapiens, ASPC1, 144 h): 1150 nM
IC50 [2]: 5.34 nM
IC50 ([3]; Homo sapiens): 28.5 nM

C#Cc1cccc2cc(O)cc(-c3c(C(=C)C)cc4c(N5CC6CCC(C5)N6)nc(OCC5(CN6CCOCC6)CC5)nc4c3F)c12 [Compound 105]
IC50 (AGS; Homo sapiens, 144 h): 18.4 nM
IC50 [1]: 15.6 nM
IC50 (AsPC-1; Homo sapiens, ASPC1, 144 h): 63.3 nM
IC50 [2]: 1.57 nM
IC50 ([3]; Homo sapiens): 13 nM

C#Cc1c(F)ccc2cc(O)cc(-c3ccc4c(N5CC6CCC(C5)N6)nc(OCC5(CN6CCC(O)CC6)CC5)nc4c3F)c12 [Compound 76]
IC50 (AGS; Homo sapiens, 144 h): 72.1 nM
IC50 [1]: 64.8 nM
IC50 (AsPC-1; Homo sapiens, ASPC1, 144 h): 671 nM
IC50 [2]: 4.33 nM
IC50 ([3]; Homo sapiens): 8.3 nM

C#Cc1cccc2cc(O)cc(-c3ccc4c(N5CC6CCC(C5)N6)nc(OCC5(CN6CCOCC6)CC5)nc4c3C)c12 [Compound 132]
IC50 (AGS; Homo sapiens, 144 h): 33.2 nM
IC50 [1]: 794 nM
IC50 (AsPC-1; Homo sapiens, ASPC1, 144 h): 111 nM
IC50 [2]: 25.7 nM
IC50 ([3]; Homo sapiens): 96.4 nM

C#Cc1cccc2cc(O)cc(-c3ccc4c(N5CC6CCC(C5)N6)nc(OCC5(CN6CCO[C@@H](C)C6)CC5)nc4c3F)c12 [Compound 80]
IC50 (AGS; Homo sapiens, 144 h): 5.26 nM
IC50 [1]: 69.4 nM
IC50 (AsPC-1; Homo sapiens, ASPC1, 144 h): 24.1 nM
IC50 [2]: 3.76 nM
IC50 ([3]; Homo sapiens): 3.63 nM

C#Cc1cccc2cc(O)cc(-c3ccc4c(N5CC6CCC(C5)N6)nc(OCC5(CN6CCCCC6)CC5)nc4c3F)c12 [Compound 131]
IC50 (AGS; Homo sapiens, 144 h): 13.4 nM
IC50 [1]: 90.4 nM
IC50 (AsPC-1; Homo sapiens, ASPC1, 144 h): 55 nM
IC50 [2]: 9.1 nM
IC50 ([3]; Homo sapiens): 9.86 nM

C#Cc1cccc2cc(O)cc(-c3c(C(F)(F)F)cc4c(N5CC6CCC(C5)N6)nc(OCC5(CN6CCOCC6)CC5)nc4c3F)c12 (single isomer, unassigned) [Compound 98B]
IC50 (AGS): 6.03 nM
IC50 [1]: 11.2 nM
IC50 (AsPC-1): 36.7 nM
IC50 [2]: 0.826 nM
IC50 [3]: 11.6 nM

C#Cc1cccc2cc(O)cc(-c3ccc4c(N5CC6CCC(C5)N6)nc(OCC5(CN(C)CCO)CC5)nc4c3F)c12 [Compound 86]
IC50 (AGS; Homo sapiens, 144 h): 60.3 nM
IC50 [1]: 97 nM
IC50 (AsPC-1; Homo sapiens, ASPC1, 144 h): 528 nM
IC50 [2]: 20.9 nM
IC50 ([3]; Homo sapiens): 7.4 nM

C#Cc1cccc2cc(O)cc(-c3cc4nc(OCC5(CN6CCOCC6)CC5)nc(N5CC6CCC(C5)N6)c4cc3C#N)c12 [Compound 61]
IC50 (AGS; Homo sapiens, 144 h): 130 nM
IC50 [1]: 284 nM
IC50 (AsPC-1; Homo sapiens, ASPC1, 144 h): 897 nM
IC50 [2]: 23.5 nM
IC50 ([3]; Homo sapiens): 32.8 nM

C#Cc1cccc2cc(O)cc(-c3c(F)cc4c(N5CC6CCC(C5)N6)nc(OCC5(CN6CC[S+]([O-])CC6)CC5)nc4c3F)c12 [Compound 89]
IC50 (AGS; Homo sapiens, 144 h): 14.9 nM
IC50 [1]: 1940 nM
IC50 (AsPC-1; Homo sapiens, ASPC1, 144 h): 96.6 nM
IC50 [2]: 20.5 nM
IC50 ([3]; Homo sapiens): > 1000 nM

C#Cc1cccc2cc(O)cc(-c3c(CO)cc4c(N5CC6CCC(C5)N6)nc(OCC5(CN6CCOCC6)CC5)nc4c3F)c12 [Compound 102]
IC50 (AGS; Homo sapiens, 144 h): 82.5 nM
IC50 [1]: 74.2 nM
IC50 (AsPC-1; Homo sapiens, ASPC1, 144 h): 1940 nM
IC50 [2]: 6.42 nM
IC50 ([3]; Homo sapiens): 40.4 nM

C#Cc1cccc2cc(O)cc(-c3ccc4c(N5CC6CCC(C5)N6)nc(OCC5(CN6CCC(OC)CC6)CC5)nc4c3F)c12 [Compound 117]
IC50 (AGS; Homo sapiens, 144 h): 12.4 nM
IC50 [1]: 129 nM
IC50 (AsPC-1; Homo sapiens, ASPC1, 144 h): 85.6 nM
IC50 [2]: 17.1 nM
IC50 ([3]; Homo sapiens): 10.3 nM

C#Cc1cccc2cc(O)cc(-c3c(F)cc4c(N5CC6CCC(C5)N6)nc(OCC5(CN6CCOCC6)CC5)nc4c3Cl)c12 [Compound 43]
IC50 (AGS; Homo sapiens, 144 h): 18.3 nM
IC50 [1]: 417 nM
IC50 (AsPC-1; Homo sapiens, ASPC1, 144 h): 43.6 nM
IC50 [2]: 18 nM
IC50 ([3]; Homo sapiens): 17.8 nM

C#Cc1cccc2cc(O)cc(-c3c(C)cc4c(N5CC6CCC(C5)N6)nc(OCC5(CN6CCOCC6)CC5)nc4c3F)c12 (single isomer, unassigned) [Compound 40B]
IC50 (AGS): 4.92 nM
IC50 [1]: 22.4 nM
IC50 (AsPC-1): 45.8 nM
IC50 [2]: 0.824 nM
IC50 [3]: 1.97 nM

C#Cc1cccc2cc(O)cc(-c3c(SC(F)(F)F)cc4c(N5CC6CCC(C5)N6)nc(OCC5(CN6CCOCC6)CC5)nc4c3F)c12 (single isomer, unassigned) [Compound 59B]
IC50 (AGS): 6 nM
IC50 [1]: 6.28 nM
IC50 (AsPC-1): 5.54 nM
IC50 [2]: 1.65 nM
IC50 [3]: 10.8 nM
